Literature values as cited in patent US20250288728A1, “SYSTEMS AND METHODS FOR GEL-BASED NEUROMODULATION” (Tulavi Therapeutics, Inc., priority 2018, published 2025).

Tests used:
[1] = test system: TRPV1 expressing cardiac nerve endings; conditions: 50 μg/ml RTX (10% ethanol in 10% Tween 80/isotonic saline) painted twice on right and left ventricles
sympathetic ganglia = conditions: in vitro; 4 μg/ml (10 uM); within 36 hours

| Molecule | duration of complete ablation of TRPV1 expressing cardiac nerve endings [1] | sympathetic ganglia cell death (sympathetic ganglia) |
| --- | --- | --- |
| C=C(C)[C@]12C[C@@H](C)[C@@]34O[C@](Cc5ccccc5)(O[C@@H]1[C@@H]3C=C(COC(=O)Cc1ccc(O)c(OC)c1)C[C@]1(O)C(=O)C(C)=C[C@@H]41)O2 [RTX, resiniferatoxin] | over 10 weeks | – |
| Cholesterol oxides | – | rapid cell sympathetic ganglia cell death |
